Reference: patent US20060153894A1, “Multi-compartment delivery system” (priority 2004, published 2006)

Tested on: TNF-α secretion from LPS-stimulated PBMC
Assay: TNF-α secretion from LPS-stimulated PBMC with p38 inhibitor loaded in the outer compartment (ELISA)
Assay type: cell-based, human
Conditions: outer compartments loaded with 10.99 ng, 109.9 ng or 1099 ng, 1×10^6 PBMC on inner compartment, LPS 10 ng/ml overnight
Experimental: Outer compartments were made from a composite matrix similar to the one prepared in Example 3. The compartments were loaded with three different amounts (10.99 ng, 109.9 ng, or 1099 ng) of p38 kinase inhibitor (JNJ 3026582, also known as RWJ 67657). The chemical structure of this compound (4-[4-(4-fluorophenyl)-1-(3-phenylpropyl)-5-44-pyridinyl)-1H-imidazol-2-yl]-3-butyn-1-ol) has been previously documented (Wadsworth et al., J. Pharm. Exp. Ther 291:680-687, 1999).
The inner compartments were prepared from a non-woven Vicryl® fibrous matrix fabricated as described in Example 2. Mononuclear cells were freshly isolated from human peripheral blood, counted and adjusted to a final cell number in RPMI-1640 (Invitrogen Life Technologies, Carlsbad, Calif.) with 1% fetal bovine serum (FBS, HyClone, Logan, UT). A total of 1×10^6 cells in a final volume of 50ul were seeded onto the inner compartments.
The two compartments were combined and pre-cultured for 1 hour in a 24-well plate with 0.5 ml culture medium. A stimulus of LPS (lipopolysaccharide) (10 ng/ml; Sigma, St. Louis, Mo.) was added to each well and incubated overnight at 37° C., 5%CO2. Supernatant from each well was collected and analyzed for TNF-α content using a standard commercial ELISA kit (R&D Systems, Minneapolis, Minn.). […]

OCCC#Cc1nc(-c2ccc(F)cc2)c(-c2ccncc2)n1CCCc1ccccc1 [RWJ 67657]
inhibition of TNF-α secretion: dose dependent inhibition | inhibition of TNF-α secretion (listed as p38 inhibitor): inhibited in a dose-dependent manner
